Article PMC6001238, “Iterative Chemical Engineering of Vancomycin Leads to Novel Vancomycin Analogs With a High in Vitro Therapeutic Index” (Frontiers in Microbiology, 2018)
Converted amounts (≈) assume the structure as drawn.

Experiments:
S. aureus VISA/HIP5827 = experiment: MIC, broth microdilution, vancomycin-intermediate S. aureus VISA HIP5827; type: cell-based, Staphylococcus aureus; details: for MIC: Staphylococcus aureus VISA/HIP5827, read-out: MIC; for MIC-fold improvement vs. vancomycin: VISA/HIP5827, ratio of MIC of vancomycin and MIC of analogue
Outline: (§1)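 MIC values come from broth microdilution run to CLSI susceptibility-testing standards. Ultrapure water and uninoculated broth served as controls. In one series, vancomycin at a final 10 μM was co-dosed with the analogue or comparator antibiotic.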

[1] = system: human T-lymphocyte (CEM) cells; experiment: Cytostatic activity, CEM cell proliferation; type: cell-based; details: mean ± SD of three experiments; highest concentration tested 250 µM; 3 days; read-out: Toxicity (IC50) CEM
Outline: (§2)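 Coulter counter cell counts after 37°C culture with compound; IC50 = concentration giving 50% growth inhibition vs negative control. Incubation: L1210 2 d, CEM 3 d, HeLa 4 d. Suspension density before mixing with an equal volume of dilution: 300,000–500,000 cells/mL.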

MRSA KS1 = experiment: MIC, broth microdilution, MRSA KS1; type: cell-based, Staphylococcus aureus; details: for MIC-fold improvement vs. vancomycin: MRSA KS1, ratio of MIC of vancomycin and MIC of analogue; for MIC: Staphylococcus aureus MRSA KS1, read-out: MIC
Outline: as §1

E. faecalis VRE 53 = experiment: MIC, broth microdilution, vancomycin-resistant E. faecalis VRE 53 (VanA); type: cell-based, Enterococcus faecalis; details: for MIC: Enterococcus faecalis VRE 53 (vancomycin-resistant), read-out: MIC; for MIC-fold improvement vs. vancomycin: VRE 53, ratio of MIC of vancomycin and MIC of analogue
Outline: as §1

MRSA KS2 = experiment: MIC, broth microdilution, MRSA KS2; type: cell-based, Staphylococcus aureus; details: for MIC-fold improvement vs. vancomycin: MRSA KS2, ratio of MIC of vancomycin and MIC of analogue; for MIC: Staphylococcus aureus MRSA KS2, read-out: MIC
Outline: as §1

E. faecalis VRE 6 = experiment: MIC, broth microdilution, vancomycin-resistant E. faecalis VRE 6 (VanA); type: cell-based, Enterococcus faecalis; details: for MIC: Enterococcus faecalis VRE 6 (vancomycin-resistant), read-out: MIC; for MIC-fold improvement vs. vancomycin: VRE 6, ratio of MIC of vancomycin and MIC of analogue
Outline: as §1

MRSA KS89 = experiment: MIC, broth microdilution, MRSA KS89; type: cell-based, Staphylococcus aureus; details: for MIC-fold improvement vs. vancomycin: MRSA KS8, ratio of MIC of vancomycin and MIC of analogue; for MIC: Staphylococcus aureus MRSA KS8, read-out: MIC
Outline: as §1

E. faecalis VRE 29 = experiment: MIC, broth microdilution, vancomycin-resistant E. faecalis VRE 29 (VanA); type: cell-based, Enterococcus faecalis; details: for MIC: Enterococcus faecalis VRE 29 (vancomycin-resistant), read-out: MIC; for MIC-fold improvement vs. vancomycin: VRE 29, ratio of MIC of vancomycin and MIC of analogue
Outline: as §1

E. faecalis VRE 37 = experiment: MIC, broth microdilution, vancomycin-resistant E. faecalis VRE 37 (VanA); type: cell-based, Enterococcus faecalis; details: for MIC: Enterococcus faecalis VRE 37 (vancomycin-resistant), read-out: MIC; for MIC-fold improvement vs. vancomycin: VRE 37, ratio of MIC of vancomycin and MIC of analogue
Outline: as §1

[2] = system: L1210, CEM and HeLa cell lines; experiment: Cytostatic activity, average or summary over L1210, CEM and HeLa; type: cell-based; details: average of L1210, CEM and HeLa; read-out: Toxicity (IC50) Average
Outline: as §2

S. aureus VRSA = experiment: MIC, broth microdilution, vancomycin-resistant S. aureus (VRSA); type: cell-based, Staphylococcus aureus; details: for MIC: Staphylococcus aureus VRSA, read-out: MIC; for MIC-fold improvement vs. vancomycin: VRSA, ratio of MIC of vancomycin and MIC of analogue
Outline: as §1

[3] = system: S. aureus VSSA (ATCC 6538); experiment: MIC, broth microdilution, vancomycin-sensitive S. aureus (VSSA/MSSA, ATCC 6538); type: cell-based, Staphylococcus aureus; details: for MIC: Staphylococcus aureus VSSA, read-out: MIC; for MIC-fold improvement vs. vancomycin: VSSA, ratio of MIC of vancomycin and MIC of analogue
Outline: as §1

E. faecalis VSE 1 = experiment: MIC, broth microdilution, vancomycin-sensitive E. faecalis (VSE 1); type: cell-based, Enterococcus faecalis; details: for MIC: Enterococcus faecalis VSE 1 (vancomycin-sensitive), read-out: MIC; for MIC-fold improvement vs. vancomycin: VSE 1, ratio of MIC of vancomycin and MIC of analogue
Outline: as §1

[4] = system: human cervix carcinoma (HeLa) cells; experiment: Cytostatic activity, HeLa cell proliferation; type: cell-based; details: mean ± SD of three experiments; highest concentration tested 250 µM; 4 days; read-out: Toxicity (IC50) HeLa
Outline: as §2

[5] = system: Murine leukemia (L1210) cells; experiment: Cytostatic activity, L1210 cell proliferation; type: cell-based; details: mean ± SD of three experiments; highest concentration tested 250 µM; 2 days; read-out: Toxicity (IC50) L1210
Outline: as §2

MRSA KS6 = experiment: MIC, broth microdilution, MRSA KS6; type: cell-based, Staphylococcus aureus; details: for MIC-fold improvement vs. vancomycin: MRSA KS6, ratio of MIC of vancomycin and MIC of analogue; for MIC: Staphylococcus aureus MRSA KS6, read-out: MIC
Outline: as §1

SMILES | MIC (S. aureus VISA/HIP5827) | MIC-fold improvement vs. vancomycin (S. aureus VISA/HIP5827) | IC50 [1] | MIC-fold improvement vs. vancomycin (MRSA KS1) | MIC (MRSA KS1) | MIC (E. faecalis VRE 53) | MIC-fold improvement vs. vancomycin (E. faecalis VRE 53) | MIC-fold improvement vs. vancomycin (MRSA KS2) | MIC (MRSA KS2) | MIC (E. faecalis VRE 6) | MIC-fold improvement vs. vancomycin (E. faecalis VRE 6) | MIC-fold improvement vs. vancomycin (MRSA KS89) | MIC (MRSA KS89) | MIC (E. faecalis VRE 29) | MIC (E. faecalis VRE 37) | MIC-fold improvement vs. vancomycin (E. faecalis VRE 37) | IC50 [2] | MIC (S. aureus VRSA) | MIC-fold improvement vs. vancomycin (S. aureus VRSA) | MIC [3] | other results
CNC(CC(C)C)C(=O)NC1C(=O)NC(CC(N)=O)C(=O)NC2C(=O)NC3C(=O)NC(C(=O)NC(C(=O)NCC(=O)Nc4ccc(-c5cn(-c6ccc(C)cc6)nn5)cc4)c4cc(O)cc(O)c4-c4cc3ccc4O)C(O)c3ccc(c(Cl)c3)Oc3cc2cc(c3OC2OC(CO)C(O)C(O)C2OC2CC(C)(N)C(O)C(C)O2)Oc2ccc(cc2Cl)C1O (stereo not drawn) [Vanc-76] | 0.78 µM (≈ 1.36 µg/mL) | 8 | 3.2 ± 0.6 µM | >8 | <0.10 µM | 3.13 µM (≈ 5.44 µg/mL) | 128 | 4 | 0.20 µM (≈ 0.348 µg/mL) | 1.56 µM (≈ 2.71 µg/mL) | 128 | 4 | 0.20 µM (≈ 0.348 µg/mL) | 3.13 µM (≈ 5.44 µg/mL) | 3.13 µM (≈ 5.44 µg/mL) | 128 | 10 µM | 0.78 µM (≈ 1.36 µg/mL) | 128 | 0.39 µM (≈ 0.678 µg/mL) | MIC-fold improvement vs. vancomycin (E. faecalis VRE 29): 128; MIC-fold improvement vs. vancomycin [3]: 2; MIC (E. faecalis VSE 1): 0.78 µM (≈ 1.36 µg/mL); MIC-fold improvement vs. vancomycin (E. faecalis VSE 1): 2; IC50 [4]: 17 ± 2 µM; IC50 [5]: 11 ± 7 µM; MIC-fold improvement vs. vancomycin (MRSA KS6): 4; MIC (MRSA KS6): 0.20 µM (≈ 0.348 µg/mL)
CN[C@H](CC(C)C)C(=O)N[C@H]1C(=O)N[C@@H](CC(N)=O)C(=O)N[C@H]2C(=O)N[C@H]3C(=O)N[C@H](C(=O)N[C@H](C(=O)NCC(=O)Nc4ccc(-c5cn(-c6ccccc6)nn5)cc4)c4cc(O)cc(O)c4-c4cc3ccc4O)[C@H](O)c3ccc(c(Cl)c3)Oc3cc2cc(c3O[C@@H]2O[C@H](CO)[C@@H](O)[C@H](O)[C@H]2O[C@H]2C[C@](C)(N)[C@H](O)[C@H](C)O2)Oc2ccc(cc2Cl)[C@H]1O [Vanc-77] | 0.78 µM (≈ 1.35 µg/mL) | 8 | 26 ± 1 µM | >8 | <0.10 µM | 6.25 µM (≈ 10.8 µg/mL) | 64 | 4 | 0.20 µM (≈ 0.345 µg/mL) | 1.56 µM (≈ 2.69 µg/mL) | 128 | 4 | 0.20 µM (≈ 0.345 µg/mL) | 6.25 µM (≈ 10.8 µg/mL) | 6.25 µM (≈ 10.8 µg/mL) | 64 | 92 µM | 0.78 µM (≈ 1.35 µg/mL) | 128 | 0.39 µM (≈ 0.673 µg/mL) | MIC-fold improvement vs. vancomycin (E. faecalis VRE 29): 64; MIC-fold improvement vs. vancomycin [3]: 2; MIC (E. faecalis VSE 1): 0.39 µM (≈ 0.673 µg/mL); MIC-fold improvement vs. vancomycin (E. faecalis VSE 1): 4; IC50 [4]: 58 ± 7 µM; IC50 [5]: 192 ± 101 µM; MIC-fold improvement vs. vancomycin (MRSA KS6): 4; MIC (MRSA KS6): 0.20 µM (≈ 0.345 µg/mL)
CNC(CC(C)C)C(=O)NC1C(=O)NC(CC(N)=O)C(=O)NC2C(=O)NC3C(=O)NC(C(=O)NC(C(=O)NCC(=O)Nc4ccc(-c5ccc(Cl)cc5)cc4)c4cc(O)cc(O)c4-c4cc3ccc4O)C(O)c3ccc(c(Cl)c3)Oc3cc2cc(c3OC2OC(CO)C(O)C(O)C2OC2CC(C)(N)C(O)C(C)O2)Oc2ccc(cc2Cl)C1O (stereo not drawn) [Vanc-84] | 0.39 µM (≈ 0.66 µg/mL) | 16 | 1.6 ± 0.9 µM | 8 | 0.10 µM (≈ 0.169 µg/mL) | 3.13 µM (≈ 5.3 µg/mL) | 128 | 8 | 0.10 µM (≈ 0.169 µg/mL) | 0.78 µM (≈ 1.32 µg/mL) | 256 | 4 | 0.20 µM (≈ 0.338 µg/mL) | 0.78 µM (≈ 1.32 µg/mL) | 3.13 µM (≈ 5.3 µg/mL) | 128 | 5 µM | 0.78 µM (≈ 1.32 µg/mL) | 128 | 0.10 µM (≈ 0.169 µg/mL) | MIC-fold improvement vs. vancomycin (E. faecalis VRE 29): 512; MIC-fold improvement vs. vancomycin [3]: 8; MIC (E. faecalis VSE 1): ≤0.05 µM; MIC-fold improvement vs. vancomycin (E. faecalis VSE 1): ≥32; IC50 [4]: 13 µM; IC50 [5]: 1.5 ± 0.1 µM; MIC-fold improvement vs. vancomycin (MRSA KS6): 4; MIC (MRSA KS6): 0.20 µM (≈ 0.338 µg/mL)
CNC(CC(C)C)C(=O)NC1C(=O)NC(CC(N)=O)C(=O)NC2C(=O)NC3C(=O)NC(C(=O)NC(C(=O)NCC(=O)Nc4ccc(-c5ccc(C(C)=O)cc5)cc4)c4cc(O)cc(O)c4-c4cc3ccc4O)C(O)c3ccc(c(Cl)c3)Oc3cc2cc(c3OC2OC(CO)C(O)C(O)C2OC2CC(C)(N)C(O)C(C)O2)Oc2ccc(cc2Cl)C1O (stereo not drawn) [Vanc-85] | 0.78 µM (≈ 1.33 µg/mL) | 8 | 5.6 ± 0.6 µM | 8 | 0.10 µM (≈ 0.17 µg/mL) | 12.5 µM (≈ 21.2 µg/mL) | 32 | 4 | 0.20 µM (≈ 0.34 µg/mL) | 0.78 µM (≈ 1.33 µg/mL) | 256 | 4 | 0.20 µM (≈ 0.34 µg/mL) | 1.56 µM (≈ 2.65 µg/mL) | 3.13 µM (≈ 5.32 µg/mL) | 128 | 44 µM | 1.56 µM (≈ 2.65 µg/mL) | 64 | 0.20 µM (≈ 0.34 µg/mL) | MIC-fold improvement vs. vancomycin [3]: 4; MIC (E. faecalis VSE 1): ≤0.05 µM; MIC-fold improvement vs. vancomycin (E. faecalis VSE 1): ≥32; IC50 [4]: 94 ± 12 µM; IC50 [5]: 31 ± 9 µM; MIC-fold improvement vs. vancomycin (MRSA KS6): 2; MIC (MRSA KS6): 0.39 µM (≈ 0.663 µg/mL)
